Values of other authors, collected in patent US20260131010A1, “MENIN PROTEOLYSIS TARGETING CHIMERAS (PROTACS)” (Board of Regents, The University of Texas System, priority 2022, published 2026).

System: MLL leukemias
Settings: Borkin, et al. Cancer Cell 2015, 27(4) 589-602

Cc1c(CN2CCC(Nc3ncnc4sc(CC(F)(F)F)cc34)CC2)ccc2c1cc(C#N)n2Cc1cn[nH]c1 [MI-503]
efficacy in mouse models of MLL leukemias: effective
